# Test results as given in patent US5411943A, “Hepatoma treatment with somatostatin analogs” (Biomeasure, Inc., priority 1992, dated 1995).
# Columns and labels:
# M5123 hepatoma [1] = experiment: Subcutaneous tumor assay, M5123 hepatoma implanted s.c. in Buffalo strain rats; assay type: in vivo, rat; conditions: for Final Tumor Size Day 15 / Percent Test/Control: 500 μg analog/inj.; for Final Tumor Size Day 15: mean ± S.D.; for Percent Test/Control: day 15
# Excerpt: (§1) The M5123 hepatoma cells, obtained from Dr. H. P. Morris at the National Cancer Institute, were induced in the Buffalo strain of rats by ingestion of N-(2-fluorenylphthalamic acid) and established in serial transplantation. Implantation of the M5123 hepatoma cells in an immunodeficient athymic mouse or Buffalo strain rat reproducibly results in a progressively growing, lethal tumor.
# (§2) To determine the growth inhibitory effect of bombesin analogs on hepatoma cells, two in vivo assay systems, the subcutaneous tumor assay in the syngeneic Buffalo strain rat and the subrenal capsule assay using the immunodeficient athymic nude mouse were employed.
# In the subcutaneous assay, tumor grafts are implanted subcutaneously and treatment can be initiated at any selected time after the implantation.
# In this assay, 20 male Buffalo strain rats were implanted s.c., right flank, with a 2 mm^3 mince of the M5123 hepatoma in the a.m. of day zero. The animals were individually identified and then randomized 10 rats in the control and 5 rats per test group. […] Tumor sizes were determined with Vernier calipers twice weekly and size calculated as the average of two diameters (length+width/2) mm.
# M5123 hepatoma [2] = experiment: Subrenal capsule assay (SRCA), M5123 rat hepatoma xenografts in athymic female mice; assay type: in vivo, mouse; conditions: s.c., b.i.d., q.d. 1-9; for Change in Tumor Size between day 0 and day 10: mean ± s.e.m.
# Excerpt: as §1, §2
# SRCA was designed as a rapid in vivo method for testing chemotherapeutic agents against tumor xenografts prepared from solid malignancies. As an antitumor screening procedure, tumors, both human and murine, can be tested as xenografts in athymic female mice. For detailed description of this assay, see Bogden, A. E. et al. A rapid screening method for testing chemotherapeutic agents against human tumor xenografts. In: Proc. Symp. Use of Athymic (Nude) Mice in Cancer Research, p. 231, Edited by Houchens et al., Gustav Fisher, N.Y. (1978).
# Further, an in situ determination of tumor xenograft size at time of implantation and again at termination of the assay, permits use of the very simple parameter of change in tumor size for evaluating tumor sensitivity to the analog. Since the initial measurement provides each xenograft with its own baseline for evaluating drug effects, one can measure tumor response to drugs in terms of progression, stabilization, partial remission and complete remission, which are parameters that have clinical relevance.
# In this assay, xenografts prepared from the transplantation-established M5123 hepatoma were first implanted in immunodeficient athymic female mice, followed by treatment with BIM-23014, in assays of 10-day duration. Thirty two athymic female mice were implanted under the renal capsule with 1 mm cubed grafts of the M5123 rat hepatoma on day zero. Treatment with the analog was initiated on day one at 500, 250 and 50 μg per injection, s.c., b.i.d., on a q.d. 1-9 schedule. On day 10, the mice were sacrificed, the kidney was removed and the size of the tumor was measured to determine changes in tumor size between day 0 and day 10.
# More specifically, the size of the tumor was measured in situ by means of a stereoscope, which was fitted with an ocular micrometer calibrated in ocular units (OMU, 10 OMU=1 mm). For each tumor, two perpendicular diameters were measured and the difference in mean tumor diameter over the 10-day period was calculated.
# [3] = Body weight change (systemic toxicity) in the subcutaneous assay; assay type: in vivo, rat; conditions: for Final Body Weight/Initial Body Weight ratio: q.d. 0-15 (control 1.15)
# Method: In this assay, 20 male Buffalo strain rats were implanted s.c., right flank, with a 2 mm^3 mince of the M5123 hepatoma in the a.m. of day zero. The animals were individually identified and then randomized 10 rats in the control and 5 rats per test group. An somatostatin analog used in the invention, H-D-β-Nal-Cys-Tyr-D-Trp-Lys-Val-Cys-Thr-NH2 (code name: BIM-23014), was administered b.i.d. Monday through Friday, and as a single total daily dose on Saturday and Sunday. Tumor sizes were determined with Vernier calipers twice weekly and size calculated as the average of two diameters (length+width/2) mm.
# Since neoplasms maintain autonomous growth by autocrine and paracrine growth factors, the importance of attaining therapeutic concentrations of an antigrowth factor such as BIM-23014 at the tumor site is emphasized in this study. […] Control Final Body Weight/Initial Body Weight ratio was 1.15, as compared to 1.06 for group 2 and 1.12 for group 3.
structure (smiles),measurement,setting,value
"CC(C)[C@@H]1NC(=O)[C@H](CCCCN)NC(=O)[C@@H](Cc2c[nH]c3ccccc23)NC(=O)[C@H](Cc2ccc(O)cc2)NC(=O)[C@@H](NC(=O)[C@H](N)Cc2ccc3ccccc3c2)CSSC[C@@H](C(=O)N[C@H](C(N)=O)[C@@H](C)O)NC1=O [BIM-23014, H-D-β-Nal-Cys-Tyr-D-Trp-Lys-Val-Cys-Thr-NH2]",Final Tumor Size Day 15,"M5123 hepatoma [1]; s.c. infusion (perilesional) b.i.d., q.d. 0-15",10.2 ± 5.6 mm
same,Percent Test/Control,"M5123 hepatoma [1]; s.c. infusion b.i.d., q.d. 0-15",62%
same,Final Tumor Size Day 15,"M5123 hepatoma [1]; s.c., b.i.d., q.d. 0-15 (flank opposite from tumor)",16.8 ± 2.4 mm
same,Percent Test/Control,"M5123 hepatoma [1]; s.c., b.i.d., q.d. 0-15",102%
same,Tumor inhibitory effect (in words),"M5123 hepatoma [1]; s.c. on the flank opposite from the tumor, 500 μg/inj.",no tumor inhibitory effects
same,Growth of the M5123 hepatoma (in words),"M5123 hepatoma [1]; s.c. perilesional infusion, 500 μg/inj., p<0.01",significantly inhibited
same,% Test/Control,M5123 hepatoma [2]; 50 μg analog/inj.,93%
same,Change in Tumor Size between day 0 and day 10,M5123 hepatoma [2]; 50 μg analog/inj.,37.00 ± 1.80 omu
same,Inhibition (antitumor activity),M5123 hepatoma [2]; 50 μg,7%
same,% Test/Control,M5123 hepatoma [2]; 250 μg analog/inj.,77%
same,Change in Tumor Size between day 0 and day 10,M5123 hepatoma [2]; 250 μg analog/inj.,30.56 ± 3.61 omu
same,Reduction in the growth of the tumor,M5123 hepatoma [2]; 250 μg/injection,about 25%
same,% Test/Control,M5123 hepatoma [2]; 500 μg analog/inj.,84%
same,Change in Tumor Size between day 0 and day 10,M5123 hepatoma [2]; 500 μg analog/inj.,33.38 ± 2.19 omu
same,Inhibition (antitumor activity),M5123 hepatoma [2]; 500 μg,16%
same,Systemic toxic effects from treatment as indicated by body weight loss (in words),"[3]; 500 μg/inj., b.i.d., q.d. 0-15",no evidence of systemic toxic effects
same,Final Body Weight/Initial Body Weight ratio,"[3]; group 2: 500 μg/inj., s.c., b.i.d.",1.06
same,Final Body Weight/Initial Body Weight ratio,"[3]; group 3: 500 μg/inj., s.c. infusion b.i.d.",1.12
